Read-outs that look alike come from different tables or passages of the source.
What was measured:
HT1080 = experiment: Cell viability, trypan blue cell count assay; format: cell-based; conditions: Homo sapiens, HT-1080, HT1080 (fibrosarcoma, wild-type p53), 100% = untreated cells
Procedure: (§1) All cell lines were grown in RPMI 1640 medium supplemented with 5% fetal bovine serum and 5% CO2. All experiments were done when the cells were 70% confluent. For cell growth measurements, 5×10^4 cells were plated in each well of six-well plates. Control and BZ-treated (0.05 μg/ml) cells were trypsinized and counted using a hemocytometer. Experiments were done in triplicate and the mean and standard deviation were determined by standard methods.
(§2) To further investigate the relationship between the induction of functional p53 and the subsequent apoptosis mediated by these drugs, the inventors posited that if BZs require wild-type p53 in order to exert their effect, then fenbendazole and mebendazole would not be cytotoxic to the many tumor lines producing a mutated p53 protein. To investigate this possibility, human cell lines derived from NSCLC origins of differing p53 status were further analyzed by a 5-day cell growth assay. The cells were plated onto a six-well plate, and the viability of the cells was determined by trypan blue exclusion. Cells were counted on a hemocytometer. The values shown are the means ±standard deviation of triplicate samples. Duplicate experiments gave similar results. H322 is a human lung adenocarcinoma line that produces a mutant p53 protein. […] However, fenbendazole and mebendazole induced nuclear accumulation of p53 only in the H460 cell line, which carries wild-type p53 genes. […] Cells were exposed to FZ (filled bar) or MZ (hatched bar) for 24 hr. A concentration of 0.05 μg/ml FZ and MZ was used. An immunoblot analysis of nuclear p53 was also performed to determine whether these drugs induced the production of p53. Equal amounts of protein extracts from each cell line before and after treatment were used for this analysis.

H460 = experiment: Cell viability, trypan blue cell count assay; format: cell-based; conditions: Homo sapiens, NCI-H460, H460 (lung, wild-type p53), 100% = untreated cells
Procedure: as §1, §2

MCF-7 = experiment: Cell viability, trypan blue cell count assay; format: cell-based; conditions: Homo sapiens, MCF7, MCF-7 (breast, wild-type p53), 100% = untreated cells
Procedure: as §1, §2

H358 = experiment: Cell viability, trypan blue cell count assay; format: cell-based; conditions: Homo sapiens, NCI-H358, H358 (lung, p53 deleted), 100% = untreated cells
Procedure: as §1, §2

Hep 3B = experiment: Cell viability, trypan blue cell count assay; format: cell-based; conditions: Homo sapiens, Hep3B, Hep 3B (liver, p53 deleted), 100% = untreated cells
Procedure: as §1, §2

HeLa = experiment: Cell viability, trypan blue cell count assay; format: cell-based; conditions: Homo sapiens, HeLa (cervical, wild-type p53 inactivated by E6), 100% = untreated cells
Procedure: as §1, §2

H226Br = experiment: Cell viability, trypan blue cell count assay; format: cell-based; conditions: Homo sapiens, H226Br (lung, R254), 100% = untreated cells
Procedure: as §1, §2

H1299 = experiment: Cell viability, trypan blue cell count assay; format: cell-based; conditions: Homo sapiens, NCI-H1299, H1299 (lung, p53 deleted), 100% = untreated cells
Procedure: as §1, §2

H596 = experiment: Cell viability, trypan blue cell count assay; format: cell-based; conditions: Homo sapiens
Procedure: as §1, §2

SK-OV-433 = experiment: Cell viability, trypan blue cell count assay; format: cell-based; conditions: Homo sapiens, SK-OV-433 (ovarian, wild-type p53), 100% = untreated cells
Procedure: as §1, §2

H549 = experiment: Cell viability, trypan blue cell count assay; format: cell-based; conditions: Homo sapiens, H549 (lung, wild-type p53), 100% = untreated cells
Procedure: as §1, §2

p53 protein = experiment: p53 induction, immunoblot analysis of nuclear extracts; format: cell-based, human; design: p53 Induction: dose or concentration left out as unconfirmed
A549 = experiment: Proliferation assay, 50% growth inhibitory concentration; format: cell-based; conditions: Homo sapiens, 24 h; A549, p53 positive; after 1 day of exposure
Procedure: as §1
(§3) Studies to determine the IC50 for fenbendazole and mebendazole were performed on a panel of six different human cancer cell lines: two carrying the wild-type p53 gene and actively expressing the p53 protein, (H460 and A549); one marked by homozymes deletion of the p53 gene and lacking p53 gene expression (H358); two expressing mutant p53 (H322 and H596); and one in which wild-type p53 is inactivated by human papilloma virus E6 protein. […] A dose of 166 nM (˜[…]) was chosen for these studies because it had been shown previously that this concentration was sufficient to induce wild-type p53 after 24 h of treatment.

HeLa (p53 inactivated) = experiment: as above; format: cell-based; conditions: Homo sapiens, 24 h, after 1 day of exposure
Procedure: as §1, §3

[1] = test system: p53, p21, MDM2, Bcl-2, Cyclin A, Cyclin D, Cdc 2, Bcl-XL, Bax, Rb and Cdk-2; experiment: Western blot of proteins of apoptotic pathways in H460 whole-cell extracts; format: cell-based, human; conditions: 0.05 μg/ml for 24 hr
Procedure: Cells were grown in 6-cm dishes, cultured, and treated as described above. To prepare the whole-cell lysates, the medium was removed and cells were washed twice with ice-cold Tris-buffered saline (TBS) (150 mM NaCl, 10 mM Tris; pH 7.6) and lysed with 0.5 ml of lysis buffer (10 mM Tris, 150 mM NaCl, 1% Triton X-100, 5 mM EDTA, 25 mM glycerphosphate, 1 mM phenylmethylsulphonyl fluoride (PMSF), 2 mM benzamidine, […], and 1 mM sodium orthovanadate) for 15 min. The lysed cells were then transferred to 1.5 ml microtubes, centrifuged at 15,000×g for 10 min at 4° C., and the supernatants collected mixed with Laemmli's sample buffer and subjected to western blot analysis as described elsewhere (Nare et al., 1994). Blots were probed with anti-p53 monoclonal antibody Bp53-12 (Santa Cruz Biotechnology, Inc.) and the immunocomplex was detected by the Enhanced Chemiluminescence kit according to the manufacturer's directions (Amersham).
To rule out the possibility that FZ and MZ have an effect on other proteins known to have a role in various apoptotic pathways, the inventors evaluated the effect of these drugs on a panel of such proteins. […] Specifically, the levels of these proteins were evaluated by Western blot analyses before and after exposure to 0.05 μg/ml FZ or MZ for 24 hr using whole-cell extracts. […] The protein level of the phosphorylated form of Rb also remained unchanged after treatment.

Compound	viability at 0.05 µg/mL (HT1080)	viability at 0.05 µg/mL (H460)	viability at 0.05 µg/mL (MCF-7)	viability at 0.05 µg/mL (H358)	viability at 0.05 µg/mL (Hep 3B)	viability at 0.05 µg/mL (HeLa)	viability at 0.05 µg/mL (H226Br)	viability at 0.05 µg/mL (H1299)	viability at 0.05 µg/mL (SK-OV-433)	viability at 0.05 µg/mL (H549)	p53 Induction (p53 protein; H226Br)	p53 Induction (p53 protein; H322)	p53 Induction (p53 protein; H358)	p53 Induction (p53 protein; H460)	p53 Induction (p53 protein; H549)	p53 Induction (p53 protein; H596)	p53 Induction (p53 protein; H1299)	p53 Induction (p53 protein; HeLa)	p53 Induction (p53 protein; Hep 3B)	p53 Induction (p53 protein; MCF-7)	other results
COC(=O)Nc1nc2ccc(Sc3ccccc3)cc2[nH]1 [Fenbendazole, methy 5-(phenylthio)-2-benzimidazole-2-carbamate]	54.5 ± 12%	39.2 ± 6.4%	43.9 ± 7.3%	88.3 ± 17.8%	79.5 ± 12.5%	93.6 ± 7.4%	80.1 ± 11.1%	89.2 ± 1.1%	52.5 ± 13.2%	46.4 ± 13.3%	No	No	No	Yes	Yes	No	No	No	No	Yes	viability (H596; NCI-H596, read-out: % Cell Viability): 86.7 ± 11.5%; concentration at which induction of p53 became detectable (p53 protein; H460): 0.01 µg/mL; induction of p53 production (p53 protein; HeLa (HPV-18) and SiHa (HPV-16) cells, 48 h, total cell proteins): no induction; p53 Induction (p53 protein; MDA 231): No; p53 Induction (p53 protein; RD): No; p53 Induction (p53 protein; SK-OV-433): Yes; p53 Induction (p53 protein; SW480): No; p53 Induction (p53 protein; Saos-2): No; p53 Induction (p53 protein; SiHa): No; IC50 (A549): 123 nM; IC50 (HeLa (p53 inactivated)): 853 nM; levels of Bcl-2, Cyclin A, Cyclin D, Cdc 2, Bcl-XL, Bax, Rb and Cdk-2 [1]: no changes; levels of nuclear p53, p21 and MDM2 [1]: enhanced
COC(=O)Nc1nc2ccc(C(=O)c3ccccc3)cc2[nH]1 [Mebendazole, Methyl 5-benzoylbenzimidazole-2-carbamate]	44.5 ± 7.7%	25.2 ± 7.6%	24.3 ± 8.4%	73.5 ± 1.8%	83.2 ± 1.5%	92.4 ± 6.27%	64.24 ± 0.2%	89.2 ± 4.3%	28.1 ± 6.1%	39.2 ± 10.7%	No	No	No	Yes	Yes	No	No	No	No	Yes	viability (H596; NCI-H596, H596 (lung, R245C), 100% = untreated cells, read-out: % Cell Viability): 86.2 ± 8%; p53 Induction (p53 protein; MDA 231): No; p53 Induction (p53 protein; RD): No; p53 Induction (p53 protein; SK-OV-433): Yes; p53 Induction (p53 protein; SW480): No; p53 Induction (p53 protein; Saos-2): No; p53 Induction (p53 protein; SiHa): No; IC50 (A549): 130 nM; IC50 (HeLa (p53 inactivated)): 400 nM; levels of Bcl-2, Cyclin A, Cyclin D, Cdc 2, Bcl-XL, Bax, Rb and Cdk-2 [1]: no changes; levels of nuclear p53, p21 and MDM2 [1]: enhanced
